The text below walks through data of patent publication US20250120932A1, “PHARMACEUTICAL COMPOSITION” (NEUROPRO THERAPEUTICS, INC., priority 2021, published 2025).

The nature of series [1]: Oral delivery of unformulated Bumetanide Dibenzylamide in Beagle dogs, pharmacokinetics and bioavailability. Format: in vivo.
The nature of series [2]: Nasal solution solubility evaluation in solvent/co-solvent systems (HPLC-UV). It is filed as physicochemical. Conditions: organic solvent or mixture, thermodynamic from solid; Caprylocaproyl Polyoxylglycerides (Labrasol ALF), Composition 8. The procedure: The solvents were chosen from a group consisting of Caprylocaproyl Polyoxylglycerides (Labrasol ALF), propylene glycol, PEG-400, vitamin E TPGS, ethanol, water, and any combination thereof.
50 g stock solutions of each solvent system were prepared. The active solutions 3.0 mL of each solvent was aliquoted to separate 8 mL clear glass vials. […] Every 30 minutes the solutions were inspected. […] This process was repeated until visible saturation of all solvent systems was obtained. Prior to analysis, the samples were centrifuged at 5,000 RPM for 3 minutes and filtered through a 0.45 μm nylon syringe filter to remove excess solids.
The dose calculations included in Table 42 are based on 75% of the concentration at saturation. This is to reduce the risk of precipitation/crystallization due to environmental fluctuations. Additionally, two dose volumes (0.2/0.5 mL) were selected in accordance with the standard range for nasal delivery. The total dose illustrated is based on the equivalent volume delivered to each nostril, 0.4-1.0 mL total per dose.

Each structure is given as a SMILES string.

Consider `CCCCNc1cc(C(=O)N(Cc2ccccc2)Cc2ccccc2)cc(S(N)(=O)=O)c1Oc1ccccc1` [Bumetanide Dibenzylamide, N, N-dibenzyl 3-aminosulfonyl-5-butylamino-4-phenoxybenzamide], for which the bioavailability in series [1] (Beagle, dog, in vivo, 30 mg, oral non-formulated, read-out: Absolute Bioavailability) is about 5.1%. In addition, the concentration at 0.5 h in series [1] (Beagle, dog, plasma, oral, 30 mg/kg, Plasma Bumetanide Dibenzylamide concentration, oral non-formulated 30 mg/kg, 0.5 h) was found to be 2.99 ng/mL. Moreover, the concentration at 4 h in series [1] (Beagle, dog, plasma, oral, 30 mg/kg, Plasma Bumetanide Dibenzylamide concentration, oral non-formulated 30 mg/kg, 4 h) came out at 149 ng/mL. For the same molecule, the concentration at 6 h in series [1] (Beagle, dog, plasma, oral, 30 mg/kg, Plasma Bumetanide Dibenzylamide concentration, oral non-formulated 30 mg/kg, 6 h) was 151 ng/mL. Moreover, the concentration at 8 h in series [1] (Beagle, dog, plasma, oral, 30 mg/kg, Plasma Bumetanide Dibenzylamide concentration, oral non-formulated 30 mg/kg, 8 h) came to 101 ng/mL. For the same molecule, the concentration at 12 h in series [1] (Beagle, dog, plasma, oral, 30 mg/kg, Plasma Bumetanide Dibenzylamide concentration, oral non-formulated 30 mg/kg, 12 h) was determined as 40.1 ng/mL. For the same molecule, the “Plasma Bumetanide Dibenzylamide concentration” value in series [1] (oral non-formulated 30 mg/kg, 0.5 h) worked out at 2.17 ng/mL; in series [1] (oral non-formulated 30 mg/kg, 0.5 h, mean), 2.58 ng/mL; in series [1] (oral non-formulated 30 mg/kg, 4 h), 136 ng/mL; in series [1] (oral non-formulated 30 mg/kg, 4 h, mean) it was 143 ng/mL; in series [1] (oral non-formulated 30 mg/kg, 6 h), 153 ng/mL; in series [1] (oral non-formulated 30 mg/kg, 6 h, mean), 152 ng/mL. Further, the “Plasma Bumetanide Dibenzylamide concentration” value in series [1] (oral non-formulated 30 mg/kg, 8 h) was 132 ng/mL; in series [1] (oral non-formulated 30 mg/kg, 8 h, mean) it was 117 ng/mL; in series [1] (oral non-formulated 30 mg/kg, 12 h) it was 50.5 ng/mL; in series [1] (oral non-formulated 30 mg/kg, 12 h, mean) it was 45.3 ng/mL. Moreover, in series [2], the solubility at 8 h was about 66 mg/mL.

The bioavailability is dose-corrected exposure relative to a reference, in per cent. One may read the solubility as the dissolved amount per volume that the medium holds.
